The values below come from US20040044079A1, “Methods and compositions for weight control” (The IAMS Company, priority 2002, published 2004).

For assay [1] the following is noted: incorporated into a high fat diet fed to mice; U.S. Pat. No. 6,054,480; cited from earlier work.
Assay [2] can be described thus: Whole body composition of overweight dogs fed treatment diets for 12 weeks. The format is in vivo. As to conditions: for Area: absolute data; for Area (relative data) / BMD (relative data) / Lean + BMC (relative data) / Total (relative data) / BMC (relative data) / Fat (relative data) / Lean (relative data): relative change, beginning to end of phase II. The method, then:
In phase I of the study, 80 beagle and mongrel dogs were fed a weight gain diet (36% protein, 26% fat by dry weight). The dogs were allowed to eat as much as they wished for 16 weeks. Weekly weight gain and daily food intake were measured for each dog. In phase II, the 20 dogs that were the poorest weight […] eliminated from the study. The 60 remaining dogs were randomly assigned to one of the four treatment groups. The treatment diets were the following: Control. Similar to EUKANUBA REDUCED FAT dry dog food, consisting of approximately 19% protein and 10% fat on a dry weight basis, with an additional 3% poultry fat to achieve a total fat content of 13%. Free fatty acid mix. Identical to the control diet, but with 3% free fatty acids in place of the 3% poultry fat. The free fatty acid was technical grade linoleic acid. Ethyl esters of fatty acid mix. Identical to control diet, but with 3% ethyl ester of fatty acid in place of the 3% poultry fat. The ethyl ester used was ethyl oleate. Lotus leaf extract. Identical to the control, but with an additional 0.3% extract of lotus leaf. Lotus leaf extract has been used in China to promote human weight loss. It is purported to help induce a sense of satiety and reduce food consumption. The dogs were given the treatment diets for 12 weeks. During this time the dogs were allowed to eat as much as they wished. Daily food intake and weekly body weight were measured. Body composition measurements were also taken, including fat, lean body mass, bone mineral content (BMC), and bone mineral density (BMD). These measurements help to determine the cause of weight loss-for instance, whether it is due to an increase in satiety and therefore reduced food intake, or an increase in thermogenesis. The measurements also allow a determination of whether weight loss results from a reduction in lean body mass or a loss of fat, or a combination of both.

The nature of assay [3]: Average body condition scores of dogs on treatment diets. In kind it is in vivo. As to conditions: for Average Body Condition Score: score 1 thin to 5 obese (Table 1); for Average Body Condition Score % Change: Day 0 to Day 84. On the procedure: (§1) In phase I of the study, 80 beagle and mongrel dogs were fed a weight gain diet (36% protein, 26% fat by dry weight). The dogs were allowed to eat as much as they wished for 16 weeks. Weekly weight gain and daily food intake were measured for each dog. In phase II, the 20 dogs that were the poorest weight […] eliminated from the study. The 60 remaining dogs were randomly assigned to one of the four treatment groups. The treatment diets were the following: The dogs were given the treatment diets for 12 weeks. During this time the dogs were allowed to eat as much as they wished. Daily food intake and weekly body weight were measured. Body composition measurements were also taken, including fat, lean body mass, bone mineral content (BMC), and bone mineral density (BMD). These measurements help to determine the cause of weight loss-for instance, whether it is due to an increase in satiety and therefore reduced food intake, or an increase in thermogenesis. The measurements also allow a determination of whether weight loss results from a reduction in lean body mass or a loss of fat, or a combination of both. [table]

A short description of assay [4]: Daily food intake of dogs on treatment diets. In kind it is in vivo. Conditions: experimental period of phase II, compared among the four diets, FIGS. 1 and 2. On the procedure: as §1, with “both.” for “both. [table]”
Assay [5] is described as follows: Weekly body weight / weight loss of dogs on treatment diets. In kind it is in vivo. Conditions: for weight loss: phase II, compared with control diet, FIGS. 3 and 4. On the procedure: as §1, with “both.” for “both. [table]”
Where [6] appears, read: second Lean column (body share).

Each structure is given as a SMILES string.

For `CCCCCCCCCCCCCC(=O)O` [myristic acid], in assay [1], the “effect on body weight” value was “caused weight loss or reduction of weight gain in the mice”.
For the compound `CCCCCCCC/C=C\CCCCCCCC(=O)OCC` [T × 2, ethyl oleate], the “BMC (bone mineral content)” value in assay [2] (Day 0, absolute data) is 253.62 g; in assay [2] (Day 84, absolute data), 229.74 g. In addition, the Fat turned out to be 5956.12 g in assay [2] (Day 0, absolute data); 36.77% in assay [2] (Day 0, share of whole body); 4723.12 g in assay [2] (Day 84, absolute data); 31.44% in assay [2] (Day 84, share of whole body). In addition, the Lean in assay [2] (Day 0, absolute data) came out at 9667.31 g; in assay [2] (Day 0, share of whole body), 61.63%; in assay [2] (Day 84, absolute data), 9837.15 g; in assay [2] (Day 84, share of whole body) it was 66.99%. Moreover, the Lean + BMC in assay [2] (Day 0, absolute data) was found to be 9920 g; in assay [2] (Day 84, absolute data), 10066.89 g. The Total in assay [2] (Day 0, absolute data) is recorded as 15877.02 g; in assay [2] (Day 84, absolute data), 14790.01 g. The BMC in assay [2] (Day 0, share of whole body) was found to be 1.61%; in assay [2] (Day 84, share of whole body), 1.57%. Besides, the Area in assay [2] (Day 0, start of phase II) was 395.54 cm^2; in assay [2] (Day 84, end of phase II), 362.26 cm^2. In addition, the “Area (relative data)” value in assay [2] was −7.99%. In addition, the “BMD (relative data)” value in assay [2] is −0.58%. In assay [2], the “Lean + BMC (relative data)” value was −4.69%. In addition, the “Total (relative data)” value in assay [2] is listed as −6.56%. For the same compound, the “BMC (relative data)” value in assay [2] (first BMC column) is on record as −8.58%; in assay [2] (second BMC column (body share)), −2.39%. The figures for the “Fat (relative data)” value in assay [2] (first Fat column (mass)) and in assay [2] (second Fat column (body share)) were −18.59% and −13.43%, respectively. Besides, the entries for the “Lean (relative data)” value in assay [2] (first Lean column (mass)) and in assay [2] (setting [6]) were 2.06% and 9.61%, respectively. Besides, the “Average Body Condition Score” value is 4.0 in assay [3] (Day 0) and 3.7 in assay [3] (Day 84). For the same compound, the “Average Body Condition Score % Change” value in assay [3] is −7.5%. For the same compound, the food intake result in assay [4] is recorded as “ate intermediate amounts, slightly more than the control diet”. Further, in assay [5] (10th-12th weeks of phase II, compared with control group), the average weight result is given as “average weight increased above that of the control group”. The weight loss entry in assay [5] was “lost more weight than the control group for the first 9 weeks of phase II”.
Regarding `CCCCC/C=C\C/C=C\CCCCCCCC(=O)O` [T × 1, linoleic acid], the “BMC (bone mineral content)” value was determined as 263.95 g in assay [2] (Day 0, absolute data) and 257.27 g in assay [2] (Day 84, absolute data). The Fat stood at 5772.09 g in assay [2] (Day 0, absolute data); 35.74% in assay [2] (Day 0, share of whole body); 4109.94 g in assay [2] (Day 84, absolute data); 29.22% in assay [2] (Day 84, share of whole body). The Lean in assay [2] (Day 0, absolute data) was determined as 9840.21 g; in assay [2] (Day 0, share of whole body), 62.58%; in assay [2] (Day 84, absolute data) it was 9607.27 g; in assay [2] (Day 84, share of whole body) it was 68.94%. Further, the “Lean + BMC” value is reported as 10104.15 g in assay [2] (Day 0, absolute data) and 9864.54 g in assay [2] (Day 84, absolute data). Besides, the Total in assay [2] (Day 0, absolute data) worked out at 15876.27 g; in assay [2] (Day 84, absolute data) it was 13974.49 g. The BMC is 1.67% in assay [2] (Day 0, share of whole body) and 1.84% in assay [2] (Day 84, share of whole body). In addition, the Area in assay [2] (Day 0, start of phase II) was 402.07 cm^2; in assay [2] (Day 84, end of phase II) it was 387.39 cm^2. The “Area (relative data)” value in assay [2] is −3.98%. Moreover, the “BMD (relative data)” value in assay [2] worked out at 1.15%. Further, in assay [2], the “Lean + BMC (relative data)” value is −2.38%. The “Total (relative data)” value in assay [2] is listed as −11.75%. For the same compound, the “BMC (relative data)” value is reported as −3.06% in assay [2] (first BMC column) and 10.16% in assay [2] (second BMC column (body share)). The “Fat (relative data)” value in assay [2] (first Fat column (mass)) is listed as −28.22%; in assay [2] (second Fat column (body share)), −18.59%. Besides, the “Lean (relative data)” value in assay [2] (first Lean column (mass)) is reported as −2.34%; in assay [2] (setting [6]), 10.84%. The figures for the “Average Body Condition Score” value in assay [3] (Day 0) and in assay [3] (Day 84) were 4.1 and 3.3, respectively. In assay [3], the “Average Body Condition Score % Change” value was −19.5%. Moreover, the food intake entry in assay [4] was “ate intermediate amounts, slightly more than the control diet”. Moreover, in assay [5], the weight loss result is given as “generally greatest”.
